We go through 48 compounds from BindingDB's records for doi:10.7270/Q2251GJ9 (The Scripps Research Institute Molecular Screening Center, 2007).

Some results are limits rather than exact numbers.

For one test, the target named is Sphingosine 1-phosphate receptor 1 (Homo sapiens, UniProt P21453). In words: S1P1 receptor agonists, dose response, cell-based, agonist mode, 60K MLSMR set (AID 468).
Sequence of Sphingosine 1-phosphate receptor 1 (P21453 whole entry): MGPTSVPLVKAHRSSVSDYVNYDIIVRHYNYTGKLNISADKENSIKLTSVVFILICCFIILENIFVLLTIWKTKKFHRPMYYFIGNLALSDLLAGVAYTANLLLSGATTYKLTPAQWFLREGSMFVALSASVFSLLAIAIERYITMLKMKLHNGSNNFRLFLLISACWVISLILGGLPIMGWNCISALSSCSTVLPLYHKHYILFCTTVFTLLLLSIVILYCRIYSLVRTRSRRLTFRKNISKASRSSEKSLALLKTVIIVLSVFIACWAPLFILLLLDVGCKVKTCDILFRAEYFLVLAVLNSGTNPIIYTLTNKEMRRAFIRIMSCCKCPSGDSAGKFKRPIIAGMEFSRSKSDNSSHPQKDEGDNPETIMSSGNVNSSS
Conditions: not given
Consider `COC(=O)c1cc(CSc2nnc(-c3ccccc3)c(-c3ccccc3)n2)oc1C` [5-[[(5,6-diphenyl-1,2,4-triazin-3-yl)thio]methyl]-2-methyl-3-furancarboxylic acid methyl ester], for which the EC50 turned out to be 1.73 µM.

In turn, `O=C(Nc1ccc(N2CCCC2)c(Cl)c1)c1ccc(Br)o1` [5-bromanyl-N-(3-chloranyl-4-pyrrolidin-1-yl-phenyl)furan-2-carboxamide] had an EC50 of 4.15 µM.

The compound `O=S(=O)(NCc1ccncc1)c1ccc(Br)s1` [5-bromanyl-N-(pyridin-4-ylmethyl)thiophene-2-sulfonamide] had a concentration giving a half-maximal response (EC50) of 2.63 µM.

In turn, `CCc1ccc(S(=O)(=O)NCCc2csc(-c3ccccc3)n2)s1` [5-ethyl-N-[2-(2-phenyl-1,3-thiazol-4-yl)ethyl]thiophene-2-sulfonamide] had a half-maximal effective concentration (EC50) of 8.69 µM.

As to `COC(=O)c1c(C)n(-c2ccc(OC)cc2)c2ccc(O)cc12` [5-hydroxy-1-(4-methoxyphenyl)-2-methyl-3-indolecarboxylic acid methyl ester], the concentration giving a half-maximal response (EC50) was determined as 6.29 µM.

`Cc1ccc(S(=O)(=O)Nc2cccc3ncccc23)s1` [5-methyl-N-quinolin-5-ylthiophene-2-sulfonamide] registered an EC50 of 9.62 µM.

`Cn1nc(C(C)(C)C)cc1C(=O)NCc1ccc(N2CCCC2=O)cc1` [5-tert-Butyl-2-methyl-2H-pyrazole-3-carboxylic acid 4-(2-oxo-pyrrolidin-1-yl)-benzylamide] yielded an EC50 of 3.86 µM.

Turning to `O=S1(=O)Nc2c(ccc3cccnc23)-c2ccccc21` [5H-quinolino[8,7-c][1,2]benzothiazine 6,6-dioxide], the EC50 was 3.95 µM.

Turning to `COc1ccc(N2CCn3c2nc2c3c(=O)n(CCCc3ccccc3)c(=O)n2C)c(OC)c1` [6-(2,4-dimethoxyphenyl)-4-methyl-2-(3-phenylpropyl)-7,8-dihydropurin[7,8-a]imidazole-1,3-quinone], the EC50 amounted to 5.83 µM.

`Clc1ccccc1C1=Nn2c(nnc2-c2ccncc2)SC1` [6-(2-chlorophenyl)-3-(4-pyridyl)-7H-[1,2,4]triazolo[3,4-b][1,3,4]thiadiazine]: the half-maximal effective concentration (EC50) came to 3.48 µM.

The compound `CCOC(=O)C1C(=O)C=C(c2ccc(OC)cc2)CC1c1ccco1` (stereo not drawn) [6-(2-furanyl)-4-(4-methoxyphenyl)-2-oxo-1-cyclohex-3-enecarboxylic acid ethyl ester] showed a half-maximal effective concentration (EC50) of 3.51 µM.

`COc1ccc(-c2cn3c(C)c(C(=O)Nc4ccncc4)sc3n2)cc1` [6-(4-methoxyphenyl)-3-methyl-N-(4-pyridyl)imidazo[2,1-b]thiazole-2-carboxamide] showed an EC50 greater than 10 µM.

Turning to `Cc1ccc(N2C(=O)c3cccc4c(N5CCN(C)CC5)ccc(c34)C2=O)c2cccnc12` [6-(4-methyl-1-piperazinyl)-2-(8-methyl-5-quinolinyl)-1H-benzo[de]isoquinoline-1,3(2H)-dione], the half-maximal effective concentration (EC50) is greater than 30 µM.

On to `Cc1[nH]nc2c1C1(C(=O)N(Cc3ccc(Cl)cc3)c3ccccc31)C(C#N)C(=N)O2` (stereo not drawn) [6-amino-1'-[(4-chlorophenyl)methyl]-3-methyl-2'-oxo-5-spiro[2H-pyrano[2,3-c]pyrazole-4,3'-indole]carbonitrile], for which the response was half-maximal at 58 µM (EC50).

As for `CCc1cc2c(N3CCN(c4ccccc4)CC3)ncnc2s1` [6-ethyl-4-(4-phenyl-1-piperazinyl)thieno[2,3-d]pyrimidine], it took 6.61 µM to reach a half-maximal effect (EC50).

As to `c1csc(CCNc2ncnc3sc4c(c23)CCC4)c1` [7,8-dihydro-6H-cyclopenta[4,5]thieno[1,2-c]pyrimidin-1-yl-[2-(2-thienyl)ethyl]amine], the EC50 worked out at 1.24 µM.

For `OCC12C=CC(O1)c1c2c(O)n(-c2ccccc2-c2ccccc2)c1O` (stereo not drawn) [7-(hydroxymethyl)-2-(2-phenylphenyl)-4,7a-dihydro-3aH-octahydro-1H-4,7-epoxyisoindole-1,3-dione], the EC50 was determined as 5.47 µM.

Consider `CCOC(=O)c1cccc2c1-c1ccccc1C2N=O` (stereo not drawn) [9-hydroximinofluorene-4-carboxylic acid ethyl ester], for which the EC50 was determined as 13 µM.

In turn, `Cc1nnc(SC(=O)N2c3ccccc3Sc3ccccc32)s1` [10-phenothiazinecarbothioic acid S-(5-methyl-1,3,4-thiadiazol-2-yl) ester] showed an EC50 of 3.57 µM.

For `CCCCn1ccnc1C(=O)c1cccc(S(=O)(=O)N2c3ccccc3CC2C)c1` (stereo not drawn) [(1-butyl-2-imidazolyl)-[3-[(2-methyl-2,3-dihydroindol-1-yl)sulfonyl]phenyl]methanone], the concentration giving a half-maximal response (EC50) came to 9.34 µM.

In the case of `Cc1nc(NC(C)c2ccccc2)c2oc3ccccc3c2n1` (stereo not drawn) [(2-methylbenzofuro[3,2-d]pyrimidin-4-yl)-(1-phenylethyl)amine], the EC50 is 6.97 µM.

As for `C=CCN1/C(=N/c2cccnc2)SCC1(O)c1ccc(C)cc1` (stereo not drawn) [(2E)-3-allyl-4-(4-methylphenyl)-2-(pyridin-3-ylimino)-1,3-thiazolidin-4-ol], the half-maximal effective concentration (EC50) was 6.13 µM.

`Cn1c(C(=O)N2CCCc3ccccc32)cc2sccc21` [(3,4-Dihydro-2H-quinolin-1-yl)-(4-methyl-4H-thieno[3,2-b]pyrrol-5-yl)-methanone] registered a concentration for a half-maximal effect (EC50) of 1.78 µM.

`OC(c1cccc(OCc2ccccc2)c1)c1nnc(-c2ccccc2)o1` (stereo not drawn) [(3-benzoxyphenyl)-(5-phenyl-1,3,4-oxadiazol-2-yl)methanol]: the EC50 was found to be 2.08 µM.

The compound `Nc1ccc(N2CCOCC2)c(Cl)c1` [(3-chloro-4-morpholino-phenyl)amine] registered an EC50 of 1.18 µM.

Compound `O=C(Oc1cccc(C(=O)N2CCOCC2)c1)c1ccc(Br)cc1` [(3-morpholin-4-ylcarbonylphenyl) 4-bromanylbenzoate] showed a 50% effective concentration (EC50) greater than 95 µM.

With `O=C(CSc1nnc(-c2cc3ccccc3cc2O)n1Cc1ccco1)c1ccc(F)cc1` [(3Z)-3-[3-[2-(4-fluorophenyl)-2-oxidanylidene-ethyl]sulfanyl-4-(furan-2-ylmethyl)-1H-1,2,4-triazol-5-ylidene]naphthalen-2-one], the concentration giving a half-maximal response (EC50) was 19.8 µM.

Compound `Cc1cc(C(=O)N2CCN(C(c3ccccc3)c3ccccc3)CC2)on1` [(4-benzhydrylpiperazin-1-yl)-(3-methyl-1,2-oxazol-5-yl)methanone] showed a concentration giving a half-maximal response (EC50) of 5.8 µM.

In turn, `CC(C)c1cc(C(=O)N2CCN(C(c3ccccc3)c3ccccc3)CC2)no1` [(4-benzhydrylpiperazin-1-yl)-(5-propan-2-yl-1,2-oxazol-3-yl)methanone] gave an EC50 greater than 10 µM.

Consider `CCCc1cc(C(=O)N2CCN(C(c3ccccc3)c3ccccc3)CC2)no1` [(4-benzhydrylpiperazin-1-yl)-(5-propyl-1,2-oxazol-3-yl)methanone], for which the EC50 amounted to 8.01 µM.

`O=C(c1cc(-c2ccco2)on1)N1CCN(C(c2ccccc2)c2ccccc2)CC1` [(4-benzhydrylpiperazin-1-yl)-[5-(furan-2-yl)-1,2-oxazol-3-yl]methanone] came in with an EC50 of 6.75 µM.

The test is the same for the next values; noted with them: inactive by the depositor's call.
`COC(=O)c1ccc(CSc2nc3ccccc3c(=O)n2Cc2ccco2)o1` [5-[[[3-(2-furanylmethyl)-4-oxo-2-quinazolinyl]thio]methyl]-2-furancarboxylic acid methyl ester] registered an EC50 of 18.8 µM.

The compound `Cc1nn(Cc2ccc(Cl)c(Cl)c2)c(C)c1NC(=O)c1cc(C2CC2)on1` [5-cyclopropyl-N-[1-(3,4-dichlorobenzyl)-3,5-dimethyl-pyrazol-4-yl]isoxazole-3-carboxamide] came in with an EC50 of 10.6 µM.

`O=C(Nc1ccc(Oc2ccccc2)cc1)c1cnc2n(c1=O)CCS2` [5-keto-N-(4-phenoxyphenyl)-2,3-dihydrothiazolo[3,2-a]pyrimidine-6-carboxamide] gave a 50% effective concentration (EC50) of 16.6 µM.

`Cc1ccc(C(=O)Nc2nc(COc3ccccc3)cs2)s1` [5-methyl-N-[4-(phenoxymethyl)-1,3-thiazol-2-yl]thiophene-2-carboxamide]: the EC50 stood at 12.1 µM.

`O=c1oc2cc(Br)ccc2n1CSC1=NCCS1` [6-Bromo-3-(4,5-dihydro-thiazol-2-ylsulfanylmethyl)-3H-benzooxazol-2-one] gave an EC50 of 12.9 µM.

With `CC(C)Cn1c(N)c(C(=O)CSc2ccc3c(c2)OCCO3)c(=O)n(C)c1=O` [6-amino-5-[2-(2,3-dihydro-1,4-benzodioxin-6-ylsulfanyl)acetyl]-3-methyl-1-(2-methylpropyl)pyrimidine-2,4-dione], the EC50 was 24 µM.

Take `COc1cccc(-c2nnc3sc(C4CCCCC4)nn23)c1` [6-cyclohexyl-3-(3-methoxyphenyl)-[1,2,4]triazolo[3,4-b][1,3,4]thiadiazole]: it took 17.4 µM to reach a half-maximal effect (EC50).

`COc1ccc2ncn(-c3ccccc3)c2c1` [6-methoxy-1-phenyl-1H-1,3-benzodiazole] gave an EC50 of 16.1 µM.

Take `Cc1cc(N2CCN(C(c3ccccc3)c3ccccc3)CC2)n2ncnc2n1` [7-(4-benzhydrylpiperazin-1-yl)-5-methyl-[1,2,4]triazolo[1,5-a]pyrimidine]: the midpoint of the response, the EC50, lay at 14.5 µM.

In turn, `CCNc1nc2c(c(=O)n(C)c(=O)n2C)n1Cc1ccc(Cl)cc1` [7-(4-chlorobenzyl)-8-(ethylamino)-1,3-dimethyl-xanthine] gave a concentration giving a half-maximal response (EC50) of 12.9 µM.

`CCCc1cc2c(=O)c(-c3ccccn3)coc2cc1OC` [7-methoxy-6-propyl-3-(2-pyridinyl)-1-benzopyran-4-one]: a half-maximal response (EC50) required 51.8 µM.

With `CCCn1c(CN2CCN(c3cccc(Cl)c3)CC2)nc2c1c(=O)n(C)c(=O)n2C` [8-[[4-(3-chlorophenyl)-1-piperazinyl]methyl]-1,3-dimethyl-7-propylpurine-2,6-dione], the concentration giving a half-maximal response (EC50) was 20.3 µM.

Compound `CC1=CC(C)(C)Nc2ccc(OC(=O)c3cccnc3)cc21` [(2,2,4-trimethyl-1H-quinolin-6-yl) pyridine-3-carboxylate] returned a 50% effective concentration (EC50) of 11.4 µM.

Compound `CC1CC(C)(C)Nc2ccc(OC(=O)c3ccco3)cc21` (stereo not drawn) [(2,2,4-trimethyl-3,4-dihydro-1H-quinolin-6-yl) furan-2-carboxylate] showed an EC50 of 13.6 µM.

The compound `COc1ccc(CNc2cc(C)nc3ncnn23)c(OC)c1` [(2,4-Dimethoxy-benzyl)-(5-methyl-[1,2,4]triazolo[1,5-a]pyrimidin-7-yl)-amine] had an EC50 of 16.3 µM.

For `CCOc1ccccc1COC(=O)c1cccc(-n2cnnn2)c1` [(2-ethoxyphenyl)methyl 3-(1,2,3,4-tetrazol-1-yl)benzoate], the EC50 stood at 22.9 µM.

Consider `Cc1cc(C(=O)N2CCN(C(c3ccccc3)c3ccccc3)CC2)no1` [(4-benzhydrylpiperazin-1-yl)-(5-methyl-1,2-oxazol-3-yl)methanone], for which it took 25.5 µM to reach a half-maximal effect (EC50).

By EC50 is commonly meant the concentration at which the effect is half-maximal. Low readings indicate greater potency, high ones weaker potency.
